Reference: patent publication US7803816B2, “MCH receptor antagonists” (Hoffmann-La Roche Inc., priority 2005, dated 2010)

Each molecule was assayed against T1, recombinant human MCHR1-receptors (Homo sapiens, UniProt Q99705) (assay: MCHR filter binding assay (competition binding)). Details: membranes from CHO-K1 cells expressing human MCHR1; 0.2 nM [Phe13,[125I]Tyr19]-MCH; read-out: IC50 (nM), in vitro activity (binding assay).
T1 construct: expressed in transfected cells
Experimental: MCHR Filter Binding Assay
Competition binding assays were performed using membranes from CHO-K1 cells stably expressing the recombinant human MCHR1-receptors. Binding reactions (90 μl, final volume) were carried out at rt by incubating 2.8 μg membranes with 0.2 nM [Phe^13,[^125I]Tyr^19]-MCH (PerkinElmer) in the absence or presence of various concentrations of competing ligands in binding buffer (50 mM HEPES, 2.5 mM CaCl2, 0.05 mM BSA, 1 mM phenanthroline, 0.03 mM Triton X-100). [Phe^13,[^125I]Tyr^19]-MCH was added 15 min following the addition of unlabeled competing ligands, and the reactions incubated for a 1 h period. The reactions were terminated by rapid filtration over pretreated 96-well filter plates (Millipore; MultiScreen 0.65 μm GFB filter plates). Filter Plates were treated for 12 h at 4° C. with a 0.5% polyvinylpyrrolidone solution containing 1% BSA and 0.1% Tween 20, and then washed with an ice-cold solution of 10 mM Tris, pH 7.5 (5×200 μl). The plates were drained following a 5 min incubation with binding buffer (200 μl) at rt. Following termination of the binding reactions, the filters were washed with ice-cold binding buffer (4×200 μl). The filter plates were air dried for 30 min, scintillation cocktail (60 μl) added to each well and radioactivity bound to the plates was determined using a Micro-beta plate reader (Wallace/PerkinElmer).

T1 sequence (Q99705 whole entry): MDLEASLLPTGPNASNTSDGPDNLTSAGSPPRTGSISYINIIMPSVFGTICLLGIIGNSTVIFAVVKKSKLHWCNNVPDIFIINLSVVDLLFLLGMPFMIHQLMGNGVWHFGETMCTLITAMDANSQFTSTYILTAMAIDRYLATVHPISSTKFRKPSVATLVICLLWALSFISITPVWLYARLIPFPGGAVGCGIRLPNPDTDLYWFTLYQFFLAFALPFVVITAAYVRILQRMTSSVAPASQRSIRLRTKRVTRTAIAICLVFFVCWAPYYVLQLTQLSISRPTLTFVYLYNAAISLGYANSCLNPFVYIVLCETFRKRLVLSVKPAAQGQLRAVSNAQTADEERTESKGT

Q: With `Cc1ccc2c(c1)nc(C)n2C1CCN(C[C@H]2Cc3ccc(NC(=O)C(C)C)cc3C2)CC1` [Example 48, N-{(S)-2-[4-(2,5-Dimethyl-benzoimidazol-1-yl)-piperidin-1-ylmethyl]-indan-5-yl}-isobutyramide] as the molecule, how does the IC50 read?
A: 20 to 200 nM

Q: `CO[C@H]1CN(C[C@H]2Cc3ccc(NC(=O)C(C)C)cc3C2)CC[C@@H]1n1c(C)nc2cc(C)ccc21` [Example 49, N-{(S)-2-[(3S,4S)-4-(2,5-Dimethyl-benzoimidazol-1-yl)-3-methoxy-piperidin-1-ylmethyl]-indan-5-yl}-isobutyramide] was tested. Which IC50 did it give?
A: 20 to 200 nM

Q: With `CO[C@@H]1CN(CC2Cc3ccccc3C2)CC[C@H]1n1c(C)nc2cc(C)ccc21` [Example 50, 1-((3R,4R)-1-Indan-2-ylmethyl-3-methoxy-piperidin-4-yl)-2,5-dimethyl-1H-benzoimidazole] as the molecule, how does the IC50 read?
A: 20 to 200 nM

Q: `CCC(C)C(=O)Nc1ccc2c(c1)CC(CN1CCC(n3c(C)nc4cc(C)ccc43)CC1)C2` (centres unmarked) [Example 51, N-{2-[4-(2,5-Dimethyl-benzoimidazol-1-yl)-piperidin-1-ylmethyl]-indan-5-yl}-2-methyl-butyramide] was tested. Which IC50 did it give?
A: 20 to 200 nM

Q: With `Cc1ccc2c(c1)nc(-c1ccccc1)n2C1CCN(C[C@@H]2Cc3ccc(N)cc3C2)CC1` [Example 52, (R)-2-[4-(5-Methyl-2-phenyl-benzoimidazol-1-yl)-piperidin-1-ylmethyl]-indan-5-ylamine] as the molecule, how does the IC50 read?
A: 20 to 200 nM

Q: For `Cc1ccc2c(c1)nc(C)n2C1CCN(CC2=Cc3ccc(NC(=O)C(C)C)cc3C2)CC1` [Example 53, N-{2-[4-(2,5-Dimethyl-benzoimidazol-1-yl)-piperidin-1-ylmethyl]-3H-inden-5-yl}-isobutyramide], which IC50 is on record?
A: 20 to 200 nM

Q: With `Cc1ccc2c(c1)nc(C)n2C1CCN(CC2=Cc3cc(NC(=O)C(C)C)ccc3C2)CC1` [Example 54, N-{2-[4-(2,5-Dimethyl-benzoimidazol-1-yl)-piperidin-1-ylmethyl]-1H-inden-5-yl}-isobutyramide] as the molecule, how does the IC50 read?
A: 200 to 5000 nM

Q: With `CCC(=O)Nc1ccc2c(c1)C[C@H](CN1CCC(n3c(C(C)C)nc4cc(C)ccc43)C(OC)C1)C2` (stereo partly drawn) [Example 59, N-{(R)-2-[4-(2-Isopropyl-5-methyl-benzoimidazol-1-yl)-3-methoxy-piperidin-1-ylmethyl]-indan-5-yl}-propionamide] as the molecule, how does the IC50 read?
A: < 20 nM

Q: With `CCC(=O)Nc1ccc2c(c1)C[C@H](CN1CC[C@H](n3c(C4CC4)nc4cc(C)ccc43)[C@@H](OC)C1)C2` [Example 60, N-{(R)-2-[(3S,4S)-4-(2-Cyclopropyl-5-methyl-benzoimidazol-1-yl)-3-methoxy-piperidin-1-ylmethyl]-indan-5-yl}-propionamide] as the molecule, how does the IC50 read?
A: < 20 nM

Q: With `CCc1nc2cc(C)ccc2n1C1CCN(C[C@@H]2Cc3ccc(NC(=O)C(C)C)cc3C2)CC1OC` (stereo partly drawn) [Example 61, N-{(R)-2-[4-(2-Ethyl-5-methyl-benzoimidazol-1-yl)-3-methoxy-piperidin-1-ylmethyl]-indan-5-yl}-isobutyramide] as the molecule, how does the IC50 read?
A: < 20 nM

Q: How did the IC50 turn out when `CCCC(=O)Nc1ccc2c(c1)C[C@H](CN1CC[C@H](n3c(C4CC4)nc4cc(C)ccc43)[C@@H](OC)C1)C2` [Example 62, N-{(R)-2-[(3S,4S)-4-(2-Cyclopropyl-5-methyl-benzoimidazol-1-yl)-3-methoxy-piperidin-1-ylmethyl]-indan-5-yl}-butyramide] was run?
A: < 20 nM

Q: With `CO[C@H]1CN(C[C@@H]2Cc3ccc(NC(=O)C(F)F)cc3C2)CC[C@@H]1n1c(C2CC2)nc2cc(C)ccc21` [Example 63, N-{(R)-2-[(3S,4S)-4-(2-Cyclopropyl-5-methyl-benzoimidazol-1-yl)-3-methoxy-piperidin-1-ylmethyl]-indan-5-yl}-2,2-difluoro-acetamide] as the molecule, how does the IC50 read?
A: < 20 nM

Q: How did the IC50 turn out when `COC1CN(C[C@@H]2Cc3ccc(NC(=O)C4CC4)cc3C2)CCC1n1c(C(C)C)nc2cc(C)ccc21` (stereo partly drawn) [Example 64, Cyclopropanecarboxylic acid {(R)-2-[4-(2-isopropyl-5-methyl-benzoimidazol-1-yl)-3-methoxy-piperidin-1-ylmethyl]-indan-5-yl}-amide] was run?
A: < 20 nM

Q: With `CO[C@H]1CN(C[C@@H]2Cc3ccc(NC(=O)C(C)C)cc3C2)CC[C@@H]1n1c(C2CC2)nc2cc(C)ccc21` [Example 65, N-{(R)-2-[(3S,4S)-4-(2-Cyclopropyl-5-methyl-benzoimidazol-1-yl)-3-methoxy-piperidin-1-ylmethyl]-indan-5-yl}-isobutyramide] as the molecule, how does the IC50 read?
A: < 20 nM

Q: With `CO[C@H]1CN(C[C@@H]2Cc3ccc(NC(=O)C(F)F)cc3C2)CC[C@@H]1n1c(C(C)C)nc2cc(C)ccc21` [Example 67, 2,2-Difluoro-N-{(R)-2-[(3S,4S)-4-(2-isopropyl-5-methyl-benzoimidazol-1-yl)-3-methoxy-piperidin-1-ylmethyl]-indan-5-yl}-acetamide] as the molecule, how does the IC50 read?
A: < 20 nM

Q: Which IC50 does the source give for `COC1CN(C[C@@H]2Cc3ccc(NC(=O)C(C)C)cc3C2)CCC1n1c(C(C)C)nc2cc(C)ccc21` (stereo partly drawn) [Example 68, N-{(R)-2-[4-(2-Isopropyl-5-methyl-benzoimidazol-1-yl)-3-methoxy-piperidin-1-ylmethyl]-indan-5-yl}-isobutyramide] here?
A: < 20 nM

Q: How did the IC50 turn out when `CCC(=O)Nc1ccc2c(c1)C[C@H](CN1CCC(n3c(CC)nc4cc(C)ccc43)C(OC)C1)C2` (stereo partly drawn) [Example 69, N-{(R)-2-[4-(2-Ethyl-5-methyl-benzoimidazol-1-yl)-3-methoxy-piperidin-1-ylmethyl]-indan-5-yl}-propionamide] was run?
A: < 20 nM

Q: For `CCc1nc2cc(C)ccc2n1C1CCN(CC2Cc3ccc(NC(=O)C(C)C)cc3C2)CC1` (centres unmarked) [Example 70, N-{2-[4-(2-Ethyl-5-methyl-benzoimidazol-1-yl)-piperidin-1-ylmethyl]-indan-5-yl}-isobutyramide], which IC50 is on record?
A: < 20 nM

Q: With `COC(=O)Nc1ccc2c(c1)C[C@H](CN1CC[C@H](n3c(C4CC4)nc4cc(C)ccc43)[C@@H](OC)C1)C2` [Example 71, {(R)-2-[(3S,4S)-4-(2-Cyclopropyl-5-methyl-benzoimidazol-1-yl)-3-methoxy-piperidin-1-ylmethyl]-indan-5-yl}-carbamic acid methyl ester] as the molecule, how does the IC50 read?
A: < 20 nM

Q: How did the IC50 turn out when `CCc1nc2cc(C)ccc2n1C1CCN(C[C@@H]2Cc3ccc(NC(=O)C4CC4)cc3C2)CC1OC` (stereo partly drawn) [Example 72, Cyclopropanecarboxylic acid {(R)-2-[4-(2-ethyl-5-methyl-benzoimidazol-1-yl)-3-methoxy-piperidin-1-ylmethyl]-indan-5-yl}-amide] was run?
A: 20 to 200 nM

Q: `CO[C@@H]1CN(C[C@@H]2Cc3ccc(NC(=O)C(C)C)cc3C2)CC[C@H]1n1c(C2CC2)nc2cc(C)ccc21` [Example 73, N-{(R)-2-[(3R,4R)-4-(2-Cyclopropyl-5-methyl-benzoimidazol-1-yl)-3-methoxy-piperidin-1-ylmethyl]-indan-5-yl}-isobutyramide] was tested. Which IC50 did it give?
A: 20 to 200 nM

Q: `CCc1nc2cc(C)ccc2n1C1CCN(CC2Cc3ccc(NC(=O)C4CC4)cc3C2)CC1` (centres unmarked) [Example 74, Cyclopropanecarboxylic acid {2-[4-(2-ethyl-5-methyl-benzoimidazol-1-yl)-piperidin-1-ylmethyl]-indan-5-yl}-amide] was tested. Which IC50 did it give?
A: 20 to 200 nM

Q: `COC(=O)Nc1ccc2c(c1)C[C@H](CN1CC[C@@H](n3c(C4CC4)nc4cc(C)ccc43)[C@H](OC)C1)C2` [Example 75, {(R)-2-[(3R,4R)-4-(2-Cyclopropyl-5-methyl-benzoimidazol-1-yl)-3-methoxy-piperidin-1-ylmethyl]-indan-5-yl}-carbamic acid methyl ester] was tested. Which IC50 did it give?
A: 20 to 200 nM

Q: For `CCC(=O)Nc1ccc2c(c1)C[C@H](CN1CC[C@@H](n3c(C4CC4)nc4cc(C)ccc43)[C@H](OC)C1)C2` [Example 76, N-{(R)-2-[(3R,4R)-4-(2-Cyclopropyl-5-methyl-benzoimidazol-1-yl)-3-methoxy-piperidin-1-ylmethyl]-indan-5-yl}-propionamide], which IC50 is on record?
A: 20 to 200 nM

Q: `COC(=O)Nc1ccc2c(c1)C[C@H](CN1CC[C@@H](n3c(C(C)C)nc4cc(C)ccc43)[C@H](OC)C1)C2` [Example 77, {(R)-2-[(3R,4R)-4-(2-Isopropyl-5-methyl-benzoimidazol-1-yl)-3-methoxy-piperidin-1-ylmethyl]-indan-5-yl}-carbamic acid methyl ester] was tested. Which IC50 did it give?
A: 20 to 200 nM

Q: `Cc1ccc2c(c1)ncn2C1CCN(CC2Cc3ccc(NC(=O)C(C)C)cc3C2)CC1` (centres unmarked) [Example 78, N-{2-[4-(5-Methyl-benzoimidazol-1-yl)-piperidin-1-ylmethyl]-indan-5-yl}-isobutyramide] was tested. Which IC50 did it give?
A: 20 to 200 nM

Q: `CCCC(=O)Nc1ccc2c(c1)C[C@H](CN1CC[C@@H](n3c(C4CC4)nc4cc(C)ccc43)[C@H](OC)C1)C2` [Example 79, N-{(R)-2-[(3R,4R)-4-(2-Cyclopropyl-5-methyl-benzoimidazol-1-yl)-3-methoxy-piperidin-1-ylmethyl]-indan-5-yl}-butyramide] was tested. Which IC50 did it give?
A: 20 to 200 nM

Q: For `CO[C@@H]1CN(C[C@@H]2Cc3ccc(NC(=O)C4CC4)cc3C2)CC[C@H]1n1c(C2CC2)nc2cc(C)ccc21` [Example 80, Cyclopropanecarboxylic acid {(R)-2-[(3R,4R)-4-(2-cyclopropyl-5-methyl-benzoimidazol-1-yl)-3-methoxy-piperidin-1-ylmethyl]-indan-5-yl}-amide], which IC50 is on record?
A: 200 to 5000 nM

Q: `CO[C@H]1CN(CC2Cc3ccccc3C2)CC[C@@H]1n1c(C)nc2cc(C)ccc21` [Example 81, 1-((3S,4S)-1-Indan-2-ylmethyl-3-methoxy-piperidin-4-yl)-2,5-dimethyl-1H-benzoimidazole] was tested. Which IC50 did it give?
A: 200 to 5000 nM
